In PMC10254843, “Discovery of New 2-Phenylamino-3-acyl-1,4-naphthoquinones as Inhibitors of Cancer Cells Proliferation: Searching for Intra-Cellular Targets Playing a Role in Cancer Cells Survival” (Molecules, 2023):

Columns and labels:
[1] = tested on: MCF-7 (mammary cancer cells); test: MTT cell survival assay, MCF-7 mammary cancer cells; type: cell-based; settings: Homo sapiens, MCF7; MTT test; cells incubated at 37 °C for 48 h (Table 1 footnote); mean ± SEM, n = 3
Description: (§1) Human cancer cell lines from bladder (T24), prostate (DU–145), breast (MCF–7) and non-tumor HEK-293 cells were obtained from the American Type Culture Collection (ATCC, Manassas, VA, USA). The cultures were maintained at a density of 1–2 × 10^5 cells/mL and the medium was changed at 48- and 72-h intervals. They were cultured in high-glucose Dulbecco’s modified Eagle medium (Gibco, Grand Island, NY, USA) supplemented with 10% fetal calf serum, penicillin (100 U/mL) and streptomycin (100 μg/mL). All cultures were kept at 37 °C in 95% air/5% CO2 at 100% humidity. Phosphate-buffered saline (PBS) was purchased from Gibco. Cells were incubated at the indicated times at 37 °C with or without compounds 1–14 at various concentrations.
(§2) The cytotoxicity of the compounds 1–14 was assessed by following the reduction of MTT (3-(4,5-Dimethylthiazol-2-yl)-2,5-diphenyltetrazolium bromide) to formazan blue. […] Doxorubicin was used as a standard chemotherapeutic agent (positive control). Cells were washed twice with warm PBS and further incubated with MTT (0.5 mg/mL) for 2 h at 37 °C. Blue formazan crystals were solubilized by adding 100 µL DMSO/well, and the optical density of colored solutions was subsequently read at 550 nm in a microplate reader Tecan infinite M200 Pro (Männedorf, Switzerland). The compounds 1–14 were dissolved in DMSO (stock solution at 100 mM) and further diluted to be evaluated at the following concentrations: 0 μM, 1 μM, 10 μM, 20 μM, 40 μM, 60 μM, 80 μM and 100 μM. Results are expressed as % of MTT reduction compared to untreated control conditions. The IC50 values were calculated using the GraphPad Prism 8.0.2 software (San Diego, CA, USA).

[2] = tested on: non-tumorigenic HEK-293 (embryonic kidney cells); test: MTT cell survival assay, non-tumorigenic HEK-293 cells; type: cell-based; settings: Homo sapiens, HEK293; MTT test; cells incubated at 37 °C for 48 h (Table 1 footnote); mean ± SEM, n = 3
Description: as §1, §2

[3] = tested on: DU-145 (prostate cancer cells); test: MTT cell survival assay, DU-145 prostate cancer cells; type: cell-based; settings: Homo sapiens, MTT test, cells incubated at 37 °C for 48 h (Table 1 footnote), mean ± SEM, n = 3
Description: as §1, §2

[4] = tested on: T24 (Urinary bladder cancer cells); test: MTT cell survival assay, T24 urinary bladder cancer cells; type: cell-based; settings: Homo sapiens; MTT test; cells incubated at 37 °C for 48 h (Table 1 footnote); mean ± SEM, n = 3
Description: as §1, §2

[5] = tested on: HEK-293 cells/tumour cells; test: Mean selective index, HEK-293 vs tumour cells; type: cell-based, human; settings: MSI = IC50 values HEK-293 cells/IC50 values tumour cells
Description: (§3) The cytotoxicity of the compounds 1–14 was assessed by following the reduction of MTT (3-(4,5-Dimethylthiazol-2-yl)-2,5-diphenyltetrazolium bromide) to formazan blue. Cells were seeded into 96-well plates at a density of 10,000 cells/well for 24 h and then they were further incubated for 24 h with or without the quinones. Doxorubicin was used as a standard chemotherapeutic agent (positive control). Cells were washed twice with warm PBS and further incubated with MTT (0.5 mg/mL) for 2 h at 37 °C. Blue formazan crystals were solubilized by adding 100 µL DMSO/well, and the optical density of colored solutions was subsequently read at 550 nm in a microplate reader Tecan infinite M200 Pro (Männedorf, Switzerland). The compounds 1–14 were dissolved in DMSO (stock solution at 100 mM) and further diluted to be evaluated at the following concentrations: 0 μM, 1 μM, 10 μM, 20 μM, 40 μM, 60 μM, 80 μM and 100 μM. Results are expressed as % of MTT reduction compared to untreated control conditions. The IC50 values were calculated using the GraphPad Prism 8.0.2 software (San Diego, CA, USA).

[6] = Half-wave potentials by cyclic voltammetry; type: physicochemical; settings: for −E^I½ (mV): acetonitrile, platinum electrode, room temperature, negative of the potential
Description: Calculation of lipophilicity (ClogP) and molar refractivity (CMR) was assessed by using the ChemBioDraw Ultra 11.0 software and the obtained values are shown in Table 3. Redox potentials of 2-phenylamino-3-acyl-1,4-naphtoquinones 1–14 were measured by cyclic voltammetry at room temperature in acetonitrile as solvent using a platinum electrode and 0.1M tetraethylammonium tetrafluoroborate as the supporting electrolyte.

[7] = tested on: DU-145, MCF-7 and T24 cancer cells; test: Antiproliferative activity over DU-145, MCF-7 and T24 cancer cells; type: cell-based, human; settings: summary of Table 1 (DU-145, MCF-7, T24)
Description: as §1, §3

−E^I½ (mV) [6] [mV]	half-wave potential ([6]; signed value) [mV]	IC50 ([7]; Homo sapiens, read-out: IC50 range over the cancer cell lines) [µM]	IC50 range over the cancer cell lines [7]	SMILES	IC50 [1] [µM]	IC50 [2] [µM]	IC50 [3] [µM]	IC50 [4] [µM]	MSI (mean selective index) [5]
				COc1cccc2c1C(=O)c1c(O)c3c(c(O)c1C2=O)C[C@@](O)(C(=O)CO)C[C@@H]3O[C@H]1C[C@H](N)[C@H](O)[C@H](C)O1 [DOX, Doxorubicin, reference compound]	0.33 ± 0.05	4.27 ± 0.34	0.93 ± 0.06	0.46 ± 0.08	7.5
800				COc1ccc(C(=O)C2=C(Nc3ccccc3)C(=O)c3ccccc3C2=O)cc1 [Compound 6, 2-(Phenylamino)-3-(4-methoxybenzoyl)naphthalene-1,4-dione]	11.8 ± 0.54	38.9 ± 3.3	19.5 ± 0.95	13.3 ± 0.44	2.6
690				COc1cc(C(=O)C2=C(Nc3ccccc3)C(=O)c3ccccc3C2=O)cc(OC)c1OC [Compound 8, 2-(Phenylamino)-3-(3,4,5-trimethoxybenzoyl)naphthalene-1,4-dione]	4.88 ± 0.52	37.4 ± 1.7	11.7 ± 0.29	7.14 ± 0.2	4.7
635	−635			O=C(C1=C(Nc2ccccc2)C(=O)c2ccccc2C1=O)c1ccsc1 [Compound 13, 2-(Phenylamino)-3-(thiophene-3-carbonyl)naphthalene-1,4-dione]	6.37 ± 0.23	20.4 ± 2.77	8.91 ± 0.82	13.8 ± 0.58	2.1
475		60.9 to 86.7		CCCCCC(=O)C1=C(Nc2ccccc2)C(=O)c2ccccc2C1=O [Compound 1, 2-(Phenylamino)-3-hexanoylnaphthalene-1,4-dione]	62.68 ± 0.53	77.3 ± 3.66	60.89 ± 0.34	86.7 ± 2.52	1.1
484			almost devoid of activity	CCCCCCCCCCCC(=O)C1=C(Nc2ccccc2)C(=O)c2ccccc2C1=O [Compound 3, 2-(Phenylamino)-3-dodecanoylnaphthalene-1,4-dione]	> 100	> 100	> 100	> 100	1.0
500				COc1cccc(C(=O)C2=C(Nc3ccccc3)C(=O)c3ccccc3C2=O)c1 [Compound 5, 2-(Phenylamino)-3-(3-methoxybenzoyl)naphthalene-1,4-dione]	6.63 ± 0.13	30.8 ± 4.07	10.2 ± 0.95	12 ± 0.37	3.2
